Key:
S. aureus [1] = assay: Agar diffusion test with loaded BNC fleeces; format: cell-based, Staphylococcus aureus
Experimental: The evaluation of the antibacterial activity of B. subtilis and B. megaterium loaded-BNC against gram-positive S. aureus was determined by an agar diffusion test. Therefore, the bacterial suspensions of B. subtilis and S. aureus were prepared in TSB broth medium as described before. […] 3 BNC fleeces were loaded using B. subtilis suspension in TSB medium, and 3 BNC fleeces were loaded using B. subtilis suspension in saline. Further 3 BNC fleeces were loaded using the B. subtilis free-supernatant, 3 BNC fleeces were loaded with gentamycin as positive control, and 3 BNC fleeces with isotonic saline as negative control. The OD600 of S. aureus was adjusted to 0.5 McFarland using sterilized saline NaCl 0.9% and the optical density spectrophotometer (Biophotometer) was determined. 20 μl of S. aureus was spread on the surface of Mueller-Hinton agar plate by a sterilized glass spreader. The last control and loaded BNC fleeces were added onto surface of the Mueller Hinton agar: 1. Negative control: saline-loaded BNC 2. Positive control: gentamicin-loaded BNC 3. B. subtilis-loaded BNC in TSB medium 4. B. subtilis-loaded BNC in saline 5. B. subtilis-free supernatant-loaded BNC.

S. aureus [2] = assay: Agar well diffusion test without BNC; format: cell-based, Staphylococcus aureus
Experimental: For the agar diffusion test the OD600 of B. megaterium and B. subtilis was adjusted to 0.1 McFarland using sterilized saline NaCl 0.9%. The OD600 of S. aureus was adjusted to 0.5 McFarland using sterilized saline NaCl 0.9%. 20 μl of S. aureus was spread on the surface of Mueller-Hinton agar plate by a sterilized glass spreader. The wells are […] on the agar plate using the back side of a 1 ml pipette tip. A small volume of Mueller-Hinton agar was melted in boiling water bath, then 100 μl of it was used to close the bottom of each created well. After solidification of the agar in the bottom of the wells, the wells were filled with 100 μl of: Negative control, sterilized saline NaCl 0.9%, Positive control, gentamicin 300 μg/ml, B. megaterium or B. subtilis-free supernatant, B. megaterium or B. subtilis suspension.

gentamicin [Gentamycin]
inhibition effect on S. aureus by diffusion test, on BNC - injection technique (S. aureus [1]; loaded on BNC by injection): + (by detection of inhibition zone > 2 mm)
inhibition effect on S. aureus by diffusion test, on BNC - spray technique (S. aureus [1]; loaded on BNC by spray): + (by detection of inhibition zone > 2 mm)
inhibition effect on S. aureus by diffusion test, on BNC - vortex technique (S. aureus [1]; loaded on BNC by vortex): + (by detection of inhibition zone > 2 mm)
inhibition effect on S. aureus by diffusion test, Without BNC (S. aureus [2]): + (by detection of inhibition zone > 2 mm)

Source: patent US20220267719A1, “METHOD FOR LOADING OF MICROORGANISMS ON MULTIPHASE BIOMATERIALS” (priority 2019, published 2022)
